Consider 4 compounds from patent US6413996B2, “Diaminocyclobutene-3,4-dione derivatives, their preparation and use” (Neurosearch A/S, priority 1998, dated 2002).

For assay [1], the system named is chloride channels in homozygoteous sickle cell erythrocytes. In words: Cl- conductance (GCl) in suspensions of sickle cell erythrocytes. In kind it is cell-based. Conditions: oxygenated as well as deoxygenated homozygoteous sickle cell erythrocytes. The text has this: (§1) The compounds of the present invention are potent blockers of chloride channels in normal as well as sickle cell erythrocytes.
(§2) All dose-response experiments were therefore performed by concomitant measurements of conductive netfluxes of Cl^− (JCl) and membrane potentials (Vm) in suspensions of erythrocytes (Bennekou, P. and Christophersen, P. (1986), Flux ratio of Valinomycin - Mediated K^+ Fluxes across the Human Red Cell Membrane in the presence of the Protronophore CCCP. J. Membrane Biol. 93, 221-227. ). The membrane Cl^−conductances (GCl) were calculated by the following equation (Hodgkin, A. L. and Huxley, A. F. (1952) The components of membrane conductance in the giant axon of Loligo. J. Physiol. Lond. 116, 449-472): [formula]
(§3) where F is the Faraday constant, ECl is the Nernst potential for the Cl-ion.

Assay [2] relates to chloride channels in normal erythrocytes. In words: Cl- conductance (GCl) from concomitant measurement of conductive Cl- netfluxes and membrane potentials in erythrocyte suspensions. In kind it is cell-based, human. The note with it: suspension of normal erythrocytes.
Description: as §1, §2, §3

In a further assay the test system is normal erythrocytes. In words: K+-flux estimated by measuring extracellular K+-concentration vs time. In kind it is cell-based. The note with it: 10 μM. An excerpt: Deoxygenation induced permeability increases of sickle cells were estimated by measuring the extracellular K^+-concentration vs time. […] The K^+ flux from oxygenated sickle erythrocytes was 2-3 times higher than from normal erythrocytes and these fluxes was accelerated 4 - 8 times upon deoxygenation.

Assay [3] has as its system osteoclast bone resorbtion. The note with it: in vitro (Ohba et al, 1996); cited from earlier work.
The subject of another assay is bone degration. The note with it: in vivo, growing young rats (Keeling et al, 1997); cited from earlier work.
The subject of assay [4] is vacuolar-type proton pump. Conditions: cited from earlier work.

On to `O=C(Nc1cccc(C(F)(F)F)c1)Nc1ccccc1C(=O)O` [3-Trifluoromethylphenyl-2-carboxyphenyl urea], for which the “block of GCl from sickle cell erythrocytes” value in assay [1] was “equipotently blocked”. The “block of GCl” value in assay [2] is “more than 95%”. Moreover, in assay [2] (read-out: KD-value for block of GCl), the Kd (usually the free concentration of one partner at which half of the binding sites on the other are occupied at equilibrium, for simple one-to-one binding) amounted to 1.3 µM. For the same compound, in the assay on normal erythrocytes, the “sensitivity of K+-fluxes to compound” value is reported as “insensitive”.

For `CC(=O)Nc1nnc(S(N)(=O)=O)s1` [acetacolamide], the “effect on bone resorbtion in pit formation assay” value in assay [3] is recorded as “effective”.

In the case of `CO/C1=C\C(C)=C\[C@@H](C)[C@@H](O)[C@@H](C)C/C(C)=C/C=C/[C@H](OC)[C@@H]([C@@H](C)[C@@H](O)[C@H](C)[C@@]2(O)C[C@@H](O)[C@H](C)[C@@H](C(C)C)O2)OC1=O` [bafilomycin A1], the “effect on bone degration” value in the assay with bone degration is “depresses bone degration”. In addition, the “block of the proton pump” value in assay [4] was “extremely potent, reversible inhibitor”. Also, in assay [3], the “effect on bone resorbtion in pit formation assay” value is given as “completely eliminates bone resorbtion”.

Consider `COc1ccc2[nH]c([S+]([O-])Cc3ncc(C)c(OC)c3C)nc2c1` (stereo not drawn) [omeprazol], for which the “block of the proton pump” value in assay [4] is on record as “ineffective”.
